Earlier results, collected in US10342235B2, “Formulations comprising phosphite” (Ceradis B.V., priority 2015, dated 2019).

System: rodents
Settings: oral administration, dermal administration, inhalatory exposure

**Q.** For potassium phosphite, which Toxicity in rodents is on record?
**A.** The Toxicity in rodents was “low toxicity”.
